Measurements as given in US9199983B2, “3-aryl-6-aryl-[1,2,4]triazolo[4,3-α]pyridines as inhibitors of cell proliferation and the use thereof” (priority 2010, dated 2015).
Counter-ions that a name gives are not always drawn.

What was measured:
[1] = system: liver cancer cell line HepG2; assay: MTT cancer cell cytotoxicity assay, HepG2; type: cell-based, human; settings: Homo sapiens, HepG2 cells, 48-72 h
Procedure: (§1) Identification of 3-(2-methoxyphenyl)-6-(4-methoxyphenyl)-[1,2,4]triazolo[4,3-a]pyridine and analogs as inhibitors of cell proliferation that were evaluated with standard MTT cancer cell cytotoxicity assay (IC50)
(§2) Human lung cancer cell line A549, breast cancer cell line T47D, liver cancer cell lines HepG2 and SMMC7721 as well as a mouse melanoma cell line B16F10 were used in the study. The cells were cultured in corresponding growth media recommended by American Type Culture Collection (ATCC) with the supplementation of penicillin G (100 U/ml)/streptomycin (100 µg/ml), and 10% fetal bovine serum (Hangzhou Sijiqing Biological Engineering Materials, Co., Ltd. China) at 37° C. in a humidified atmosphere containing 5% CO2. Cells at about 80% confluency were harvested by trypsinization. Cells were centrifuged, re-suspended in fresh growth media and counted. Corresponding numbers of cells were seeded to 96-well cell culture plates (HepG2 cell, T-47D and A549 cells at 3000 cells/well, SMMC-7721 cells at 5000 cells/well and B16F10 cells at 2000 cells/well) in a total volume of […]. Cells were incubated in CO2 incubator over night to allow the cells to attach. In next day, […] of medium containing testing (from 10 μM to 1 nM) or reference compounds was added to each well of the cells. Media without compound were used as 100% control. Cells were treated with each concentration of compounds in triplicates to ensure data accuracy. Cells were incubated with compounds in CO2 incubator for an additional 48-72 h at 37° C. After incubation, cells were removed from the CO2 incubator and […] of 5 mg/ml MTT (3-(4,5-dimethylthiazole-2-yl)-2,5-diphenyltetrazoliumbromide, Sigma) solution in PBS was added to each well. Cells were returned to CO2 incubator and incubated for additional 4 h. After the incubation, media were removed by aspiration and […] DMSO was added to each well. Plates were sealed with aluminum foil and shaked mildly on an orbital shaker for 10 min at room temperature. The absorption was measured at 550 nm with a plate reader (Varioskan Flash, Thermo Fisher Scientific) with 660 nm reading used as background control. The relative absorbance readings were calculated by subtracting readings at 660 nm from that at 550 nm. The relative absorbance was plotted again the concentrations of the testing compounds and the plots were fitted with a one-site lg(IC50) equation using Prism 5 software (GraphPad Software, Inc). The equation used in the curve fitting is as follows: relative absorbance reading=background reading+(maximal reading−brackground reading)/(1+10 ^(compound concentration-log IC50)). The background reading used in the calculation was obtained with 100% cell death using a reference anticancer drug, whereas the maximal reading was obtained in the well with no added compound. The IC50 value calculated from the equation represents the cytotoxic potency of a particular compound.

[2] = system: breast cancer cell line T47D; assay: MTT cancer cell cytotoxicity assay, T47D; type: cell-based, human; settings: Homo sapiens, T47D cells, 48-72 h
Procedure: as §1, §2

[3] = system: liver cancer cell line SMMC7721; assay: MTT cancer cell cytotoxicity assay, SMMC7721; type: cell-based, human; settings: Homo sapiens, SMMC-7721, SMMC7721 cells, 48-72 h
Procedure: as §1, §2

[4] = system: Human lung cancer cell line A549; assay: MTT cancer cell cytotoxicity assay, A549; type: cell-based; settings: Homo sapiens, A549 cells, 48-72 h
Procedure: as §1, §2

## COc1cc(-c2ccc3nnc(-c4ccccc4OC)n3c2)ccc1O [Example 56, 6-(4-Hydroxy-3-methoxyphenyl)-3-(2-methoxyphenyl)-[1,2,4]triazolo[4,3-a]pyridine]
[1]
  IC50: 706 nM
[2]
  IC50: 1480 nM
[3]
  IC50: 1820 nM
[4]
  IC50: > 10000 nM

## COc1ccccc1-c1nnc2ccc(-c3cccc(C)c3)cn12 [Example 23, 3-(2-Methoxyphenyl)-6-(3-methylphenyl)-[1,2,4]triazolo[4,3-a]pyridine]
[1]
  IC50: 180 nM
[2]
  IC50: 134 nM
[3]
  IC50: 76 nM
[4]
  IC50: 215 nM

## COc1ccc(-c2cc(C)c3nnc(-c4ccccc4OC)n3c2)cc1 [Example 55, 3-(2-Methoxyphenyl)-6-(4-methoxyphenyl)-8-methyl-[1,2,4]triazolo[4,3-a]pyridine]
[1]
  IC50: 88 nM
[2]
  IC50: 260 nM
[3]
  IC50: 58 nM
[4]
  IC50: 122 nM

## COc1ncc(-c2ccc3nnc(-c4ccccc4OC)n3c2)cn1 [Example 18, 3-(2-Methoxyphenyl)-6-(2-methoxypyrimidin-5-yl)-[1,2,4]triazolo[4,3-a]pyridine]
[1]
  IC50: > 10000 nM
[2]
  IC50: > 10000 nM
[3]
  IC50: > 10000 nM
[4]
  IC50: > 10000 nM

## COc1ccccc1-c1nnc2ccc(-c3ccc(OCc4ccccc4)c(C)c3)cn12 [Example 37, 6-(4-Benzyloxy-3-methylphenyl)-3-(2-methoxyphenyl)-[1,2,4]triazolo[4,3-a]pyridine]
[1]
  IC50: 3560 nM
[2]
  IC50: 9340 nM
[3]
  IC50: 3340 nM
[4]
  IC50: 7120 nM

## CCOc1ccccc1-c1nnc2ccc(-c3ccc(OC)cc3)cn12 [Example 74, 3-(2-Ethoxyphenyl)-6-(4-methoxyphenyl)-[1,2,4]triazolo[4,3-a]pyridine]
[1]
  IC50: 141 nM
[2]
  IC50: 151 nM
[3]
  IC50: 38 nM
[4]
  IC50: 146 nM

## COc1ccc(-c2ccc3nnc(-c4cc(S(N)(=O)=O)ccc4OC)n3c2)cc1 [Example 75, 6-(4-Methoxyphenyl)-3-(2-methoxy-5-sulfamoylphenyl)-[1,2,4]triazolo[4,3-a]pyridine]
[1]
  IC50: > 10000 nM
[2]
  IC50: > 10000 nM
[3]
  IC50: > 10000 nM
[4]
  IC50: > 10000 nM

## COc1ccccc1-c1nnc2ccc(-c3ccc(N)cc3)cn12 [Example 47, 6-(4-Aminophenyl)-3-(2-methoxyphenyl)-[1,2,4]triazolo[4,3-a]pyridine hydrochloride]
[1]
  IC50: 717 nM
[2]
  IC50: 189 nM
[3]
  IC50: 365 nM
[4]
  IC50: 1050 nM

## COc1ccccc1-c1nnc2ccc(-c3ccc(C)cc3)cn12 [Example 22, 3-(2-Methoxyphenyl)-6-(4-methylphenyl)-[1,2,4]triazolo[4,3-a]pyridine]
[1]
  IC50: 224 nM
[2]
  IC50: 147 nM
[3]
  IC50: 51 nM
[4]
  IC50: 192 nM

## COc1ccccc1-c1nnc2ccc(-c3ccc(C)cc3C)cn12 [Example 25, 6-(2,4-Dimethylphenyl)-3-(2-methoxyphenyl)-[1,2,4]triazolo[4,3-a]pyridine]
[1]
  IC50: 724 nM
[2]
  IC50: 415 nM
[3]
  IC50: 114 nM
[4]
  IC50: 725 nM

## COc1ccccc1-c1nnc2ccc(-c3ccc(O)c(C)c3)cn12 [Example 41, 6-(4-Hydroxy-3-methylphenyl)-3-(2-methoxyphenyl)-[1,2,4]triazolo[4,3-a]pyridine]
[1]
  IC50: 155 nM
[2]
  IC50: 129 nM
[3]
  IC50: 117 nM
[4]
  IC50: 212 nM

## COc1ccccc1-c1nnc2ccc(-c3cccc(N)c3)cn12 [Example 45, 6-(3-Aminophenyl)-3-(2-methoxyphenyl)-[1,2,4]triazolo[4,3-a]pyridine hydrochloride]
[1]
  IC50: 1250 nM
[2]
  IC50: 678 nM
[3]
  IC50: 829 nM
[4]
  IC50: 2930 nM

## COc1ccc(-c2ccc3nnc(-c4cccc(OC)c4)n3c2)cc1 [Example 77, 3-(3-Methoxyphenyl)-6-(4-methoxyphenyl)-[1,2,4]triazolo[4,3-a]pyridine]
[1]
  IC50: 2210 nM
[2]
  IC50: 1950 nM
[3]
  IC50: 962 nM
[4]
  IC50: 4880 nM

## COc1ccc(-c2ccc3nnc(-c4cc(OC)ccc4OC)n3c2)cc1 [Example 62, 3-(2,5-Dimethoxyphenyl)-6-(4-methoxyphenyl)-[1,2,4]triazolo[4,3-a]pyridine]
[1]
  IC50: 77 nM
[2]
  IC50: 156 nM
[3]
  IC50: 42 nM
[4]
  IC50: 142 nM

## COc1ccccc1-c1nnc2ccc(-c3cc(OC)c(OC)c(OC)c3)cn12 [Example 29, 3-(2-Methoxyphenyl)-6-(3,4,5-trimethoxyphenyl)-[1,2,4]triazolo[4,3-a]pyridine]
[1]
  IC50: > 10000 nM
[2]
  IC50: > 10000 nM
[3]
  IC50: > 10000 nM
[4]
  IC50: > 10000 nM

## COc1ccc(-c2ccc3nnc(-c4ccc(F)cc4OC)n3c2)cc1 [Example 58, 3-(4-Fluoro-2-methoxyphenyl)-6-(4-methoxyphenyl)-[1,2,4]triazolo[4,3-a]pyridine]
[1]
  IC50: 35 nM
[2]
  IC50: 54 nM
[3]
  IC50: 17 nM
[4]
  IC50: 59 nM

## COc1ccc(-c2ccc3nnc(-c4ccccc4C)n3c2)cc1 [Example 78, 6-(4-Methoxyphenyl)-3-(2-methylphenyl)-[1,2,4]triazolo[4,3-a]pyridine]
[1]
  IC50: 264 nM
[2]
  IC50: 129 nM
[3]
  IC50: 109 nM
[4]
  IC50: 610 nM

## COc1ccccc1-c1nnc2ccc(-c3ccc([N+](=O)[O-])c(OC)c3)cn12 [Example 21, 6-(3-Methoxy-4-nitrophenyl)-3-(2-methoxyphenyl)-[1,2,4]triazolo[4,3-a]pyridine]
[1]
  IC50: 4250 nM
[2]
  IC50: > 10000 nM
[3]
  IC50: > 10000 nM
[4]
  IC50: > 10000 nM

## COc1ccccc1-c1nnc2ccc(-c3ccc(O)cc3)cn12 [Example 13, 6-(4-Hydroxyphenyl)-3-(2-methoxyphenyl)-[1,2,4]triazolo[4,3-a]pyridine]
[1]
  IC50: 1280 nM
[2]
  IC50: 660 nM
[3]
  IC50: 1010 nM
[4]
  IC50: 2350 nM

## COc1ccc(-c2ccc3nnc(-c4ccccc4OC(F)(F)F)n3c2)cc1 [Example 67, 6-(4-Methoxyphenyl)-3-(2-trifluoromethoxyphenyl)-[1,2,4]triazolo[4,3-a]pyridine]
[1]
  IC50: 910 nM
[2]
  IC50: 328 nM
[3]
  IC50: 105 nM
[4]
  IC50: 471 nM

## COc1ccccc1-c1nnc2ccc(-c3ccc4c(c3)OCO4)cn12 [Example 14, 6-(Benzo[d][1,3]dioxol-5-yl)-3-(2-methoxyphenyl)-[1,2,4]triazolo[4,3-a]pyridine]
[1]
  IC50: 797 nM
[2]
  IC50: 1440 nM
[3]
  IC50: 110 nM
[4]
  IC50: 1270 nM

## COc1ccc(-c2ccc3nnc(-c4ccccc4OC)n3c2)cn1 [Example 15, 3-(2-Methoxyphenyl)-6-(6-methoxypyridin-3-yl)-[1,2,4]triazolo[4,3-a]pyridine]
[1]
  IC50: 1730 nM
[2]
  IC50: 2010 nM
[3]
  IC50: 1110 nM
[4]
  IC50: 1030 nM

## COc1ccc(-c2ccc3nnc(-c4ccc(N)cc4OC)n3c2)cc1 [Example 87, 3-(4-Amino-2-methoxyphenyl)-6-(4-methoxyphenyl)-[1,2,4]triazolo[4,3-a]pyridine hydrochloride]
[1]
  IC50: 356 nM
[2]
  IC50: 308 nM
[3]
  IC50: 175 nM
[4]
  IC50: 711 nM

## COc1ccc(-c2ccc3nnc(-c4cc(OC)c(OC)cc4OC)n3c2)cc1 [Example 69, 6-(4-Methoxyphenyl)-3-(2,4,5-trimethoxyphenyl)-[1,2,4]triazolo[4,3-a]pyridine]
[1]
  IC50: 915 nM
[2]
  IC50: 834 nM
[3]
  IC50: 307 nM
[4]
  IC50: 833 nM

## COc1ccccc1-c1nnc2ccc(-c3cc(C)c(OC)c(C)c3)cn12 [Example 30, 6-(3,5-Dimethyl-4-methoxyphenyl)-3-(2-methoxyphenyl)-[1,2,4]triazolo[4,3-a]pyridine]
[1]
  IC50: 2370 nM
[2]
  IC50: 5160 nM
[3]
  IC50: 1760 nM
[4]
  IC50: > 10000 nM

## COc1ccccc1-c1nnc2ccc(-c3ccc(C)c(Cl)c3)cn12 [Example 19, 6-(3-Chloro-4-methylphenyl)-3-(2-methoxyphenyl)-[1,2,4]triazolo[4,3-a]pyridine]
[1]
  IC50: 157 nM
[2]
  IC50: 169 nM
[3]
  IC50: 68 nM
[4]
  IC50: 221 nM
